Like-named read-outs stand apart in the source and are kept apart here.
Experiments:
[1] = system: enterococci (Enterococcus hirae); test: Growth experiment of enterococci (secondary screening), OD600 at pH 7.0 and pH 8.5; type: cell-based; design: Growth inhibition rate (%): concentration or dose not given beside the values; conditions: for Specificity: growth inhibition at pH 8.5 versus pH 7.0
Protocol: In the culture of enterococci (Enterococcus hirae), a culture medium in which the Na^+ concentration had been adjusted by adding a buffer solution using 2% tryptone and 1% yeast extract as the base was used. In a case of adding glucose, glucose prepared in a 50% solution was added so as to be 1% into the culture medium when the culture medium was used. The whole amount 200 μL was cultured using a 96-well plate, and OD600 was measured every hour by using a plate reader. By using culture media at pH 7.0 and pH 8.5, the effect of pH on the growth was observed. In culture of bacteria, the pH often fluctuates largely due to the decomposition of the sugars required for the growth, and it is extremely important to maintain a constant pH in this experiment, and therefore, the pH was maintained constant with the addition of a buffer suitable for each pH. Since the V-ATPase is expressed only under an alkaline condition, the growth inhibition observed with the addition of an inhibitor is largely dependent on the pH.
IC50 and the like of the above 24 kinds of compounds are described in the following table. […] Furthermore, with respect to the symbol “n.a.”, a compound having a growth inhibition rate of 60% or more at pH 7.0 is determined that there was the growth inhibition. In addition, the growth inhibition rate of a compound having no clear inhibition is also recorded for reference.

[2] = target: T1, V-ATPase (purified from enterococci or recombinant E. coli) (Enterococcus hirae, UniProt P43439+P43457); test: ATPase activity measurement (molybdenum blue method, primary screening); type: biochemical
T1 construct: made in house; host or cells: Enterococcus hirae (native) or recombinant E. coli
Protocol: The ATPase activity can be measured by a molybdenum blue method for measuring absorbance of the inorganic phosphoric acid generated by hydrolysis of ATP. As the reaction conditions, conditions for measuring the ATPase activity can be adopted. As the buffer solution used in the reaction, Tris-HCl buffer can be used. The reaction time is usually 10 to 60 minutes, but can be appropriately adjusted depending on the air temperature or the like. The reaction of V-ATPase is terminated with the addition of a surfactant such as sodium dodecyl sulfate (SDS), and into which a color-developing liquid (such as ferrous sulfate) is added to give a color, and then the concentration of the inorganic phosphoric acid can be calculated by the measurement of the absorbance at a wavelength of 650 nm.
From the concentration of inorganic phosphoric acid calculated above, the inhibition rate of the V-ATPase reaction can be calculated. That is, a graph is created in which the inhibition rate is plotted on the vertical axis and the concentration of compound is plotted on the horizontal axis, and the concentration (IC50) at which the inhibition rate becomes 50% is determined. As the concentration of compound at which IC50 is obtained becomes lower, a higher V-ATPase inhibitory effect is exerted with a small amount, and accordingly, the compound can be taken as a candidate compound for the inhibitor for V-ATPase activity.
The V-ATPase was prepared by the method disclosed in the following papers. • Paper 1: Takeshi Murata, et. al, “Purification and Reconstitution of Na^+-translocating Vacuolar ATPase from Enterococcus hirae”, J. Biol. Chem. 272, 24885-24890 (1997) • Paper 2: Takeshi Murata, et. al, “Torque Generation of Enterococcus hirae V-ATPase”, J. Biol. Chem. 289, 31212-31223 (2014)
ATPase activity measurement was conducted by a molybdenum blue method that quantifies the inorganic phosphoric acid generated by hydrolysis of ATP with the use of absorbance measurement. The measurement was conducted in a 96-well plate, and 0.05% DDM (n-dodecyl-β-D-maltoside), 10 μg/mL of V-ATPase (purified from enterococci or recombinant E. coli), and 20 μM of a compound were added into a buffer (100 mM Tris-HCl at pH 8.5, 100 mM NaCl, 5 mM MgSO4, 10% glycerol). Into the mixture obtained above, ATP was added so as to be 5 mM, the whole amount was set to 100 μL, the reaction was started while stirring the mixture with a stirrer, and the reaction time was set to 30 minutes. Since the ATPase activity changes largely depending on the reaction temperature, the reaction time was adjusted within the range of 10 to 60 minutes corresponding to the air temperature on the day of the experiment. With the addition of 50 μL of 20% SDS, the V-ATPase was denatured and the reaction was terminated, and into the resultant mixture, 75 μL of color-developing liquid (5% ferrous sulfate, 1.6% ammonium molybdate, and 1 M sulfuric acid) was added to give a color. Immediately, the absorbance at a wavelength of 650 nm was measured by using a plate reader. Four kinds of KH2PO4 aqueous solutions of 0.2 mM, 0.5 mM, 1.0 mM, and 1.5 mM were reacted with MQ (ultrapure water) in the same experiment system, and then the activity of V-ATPase was measured by determining the concentration of generated inorganic phosphoric acid with the use of a created calibration curve. In this regard, a compound that had inhibited 50% or more of the activity of V-ATPase was diluted stepwisely so as to have a concentration of 10 μM, 5 μM, 2 μM, 1 μM, 500 nM, 200 nM, 100 nM, and 50 nM, and the measurement similar to the above was conducted.
From the results of the above measurement of ATPase activity, the inhibition rate was calculated comparing the decrease in the activity by assuming the activity under the condition of no compound addition as 100. A graph was created in which the inhibition rate was plotted on the vertical axis and the concentration of compound was plotted on the horizontal axis (FIG. 2). […]

[3] = Table 2, E. hirae growth, pH not stated (media pH 7.0 and pH 8.5)
[4] = IC50 (nM), Table 2, inhibition of V-ATPase ATPase activity, pH 8.5 buffer
[5] = high affinity for V-ATPase (IC50), unit inferred
[6] = Table 3, 2-phenyl benzimidazole derivatives
[7] = Table 3, 2-phenyl benzimidazole derivatives, read-out: IC50
[8] = Table 2, inhibition of V-ATPase ATPase activity, pH 8.5 buffer, read-out: IC50
[9] = Table 4, (1,2,4-oxadiazol-3-yl)phenyl derivatives
[10] = IC50 (nM), Table 4, (1,2,4-oxadiazol-3-yl)phenyl derivatives

Row | SMILES | Growth inhibition rate (%) [1, 3] [%] | Specificity ([1]; Table 2) | IC50 [2, 8] [nM] | other results
1 | CC1=C(/C=C/C(C)=C/C=C/C(C)=C/C(=O)Nc2ccc(O)cc2)C(C)(C)CCC1 [Compound V-84, (2E,4E,6E,8E)-N-(4-hydroxyphenyl)-3,7-dimethyl-9-(2,6,6-trimethylcyclohexyl-1-en-1-yl)nona-2,4,6,8-tetraeneamide] | 90.6 | − (there was no growth inhibition in any case) | – | non-specific inhibition / non-specific bond [1]: non-specific inhibition; IC50 [2, 4]: 80 nM; IC50 [2, 5]: ≤ 400 nM
2 | O=C1N=C(O)N=C(O)C1=Cc1ccc(-c2ccc([N+](=O)[O-])cc2)o1 [Compound V-278] | 44.4 | + (there was no growth inhibition at pH 7.0 but was the growth inhibition at pH 8.5) | – | IC50 [2, 4]: 250 nM
3 | CCc1ccc(-c2nc3cc(C)ccc3[nH]2)cc1 [Compound V-161-02] | – | – | – | Growth inhibition rate (%) [1, 6]: 88.5%; Specificity ([1]; Table 3): + (there was no growth inhibition at pH 7.0 but was the growth inhibition at pH 8.5); IC50 [2, 7]: 120 nM
4 | CCCOc1ccc(/C=N/Nc2nc3ccccc3[nH]2)c(OCCC)c1 [Compound V-289] | 55.0 | + (there was no growth inhibition at pH 7.0 but was the growth inhibition at pH 8.5) | 600 | –
5 | O=C(c1cnc(Nc2nc3ccccc3o2)nc1)c1cc(Cl)cc(Cl)c1O [Compound V-207] | 12.0 | − (there was no growth inhibition in any case) | 5000 | –
6 | Cc1ccc(C(=O)Nc2ccc(-c3noc(COc4cccc(C)c4C)n3)cc2)s1 [Compound V-234-03] | – | – | – | Growth inhibition rate (%) [1, 9]: 72.0%; IC50 [2, 10]: 6 nM
7 | CCCOc1ccc(/C=N/NC(=N)N)c(OCCC)c1 [Compound V-189] | 91.2 | + (there was no growth inhibition at pH 7.0 but was the growth inhibition at pH 8.5) | 4500 | –
8 | O=C1N=C(NC2CCCC2)S/C1=C\c1ccc(OC(F)F)cc1OC(F)F [Compound V-6, (Z)-5-(2,4-bis(difluoromethoxy)benzylidene)-2-(cyclopentylamino) thiazol-4 (5H)-one] | 77.9 | + (there was no growth inhibition at pH 7.0 but was the growth inhibition at pH 8.5) | – | non-specific inhibition / non-specific bond [1]: no non-specific inhibition; IC50 [2, 4]: 80 nM; IC50 [2, 5]: ≤ 400 nM
9 | O=C(NC(c1ccccc1)c1cc([N+](=O)[O-])c2cccnc2c1O)C1CCCCC1 (centres unmarked) [Compound V-157] | 84.2 | n.a. (there was the growth inhibition in any case) | 2000 | –
10 | CC1(C)CC2(CC(C)(C)c3cc(O)c(O)cc32)c2cc(O)c(O)cc21 [Compound V-124] | 49.2 | + (there was no growth inhibition at pH 7.0 but was the growth inhibition at pH 8.5) | 300 | –
11 | COc1ccc(C(=O)N/N=C/C(C)=C/c2ccc(C(C)C)cc2)cc1 [Compound V-153] | 13.3 | − (there was no growth inhibition in any case) | 1000 | –
12 | COc1ccc(C(c2ccc3cccnc3c2O)N2CCOCC2)cc1 (centres unmarked) [Compound V-201] | 19.6 | − (there was no growth inhibition in any case) | 4000 | –
13 | Cc1ccc2[nH]c(-c3ccc(N4CCCC4)cc3)nc2c1 [Compound V-161-01] | – | – | – | Growth inhibition rate (%) [1, 6]: 89.7%; Specificity ([1]; Table 3): + (there was no growth inhibition at pH 7.0 but was the growth inhibition at pH 8.5); IC50 ([2]; IC50 (nM), Table 3, 2-phenyl benzimidazole derivatives): 50 nM
14 | Cc1cccc(OCc2nc(-c3ccc(NC(=O)c4cccs4)cc3)no2)c1C [Compound V-234-02] | – | – | – | Growth inhibition rate (%) [1, 9]: 74.8%; IC50 [2, 10]: 40 nM
15 | Cc1ccc2[nH]c(-c3ccc(I)cc3)nc2c1 [Compound V-161-04] | – | – | – | Growth inhibition rate (%) [1, 6]: 90.3%; Specificity ([1]; Table 3): + (there was no growth inhibition at pH 7.0 but was the growth inhibition at pH 8.5); IC50 [2, 7]: 120 nM
16 | CCCCCCCCc1ccc(O)c(C=O)c1 [Compound V-91] | 90.9 | n.a. (there was the growth inhibition in any case) | 850 | –

From patent US12599588B2, “Inhibitor for V-ATPase activity, antibacterial agent, medicine, antibacterial method and screening method” (Japan Science and Technology Agency, priority 2019, dated 2026)
